Here are results for three compounds from patent US20260035382A1, “COMPOUNDS AS SUMO ACTIVATING ENZYME INHIBITORS” (WIGEN BIOMEDICINE TECHNOLOGY (SHANGHAI) CO., LTD., priority 2022, published 2026).

Read-outs that look alike come from different tables or passages of the source.

For one data set, the target named is SAE (Homo sapiens (Human), UniProt Q9UBT2). The data set can be described thus: In vitro inhibitory activity assay against SAE (SUMO-2/3 immunofluorescence in HCT116 cells). As to conditions: 6 h incubation, numeric values, read-out: SUMO IF IC50. It is filed as cell-based. The method, boiled down:
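HCT116 cells treated with compounds for 6 h at 37 °C, then fixed, permeabilized and immunostained for SUMO-2/3 with FITC secondary detection. Fluorescence compared with DMSO control to give inhibition rate and IC50.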

A short description of data set [1]: In vivo pharmacokinetic experiment, intravenous administration. As to conditions: CD-1 female mice, 2 mpk; for Plasma AUClast: plasma (Table 5); for C0 / clearance / half-life / AUC(0-t) / Cmax / Vd: mouse, 2 mg/kg; for Vd: read-out: Vdss. How it is done: CD-1 female mice aged 6 to 8 weeks were intravenously administered at a dose of 2 mg/kg. The mice were fasted for at least 12 h before the administration and given food after the administration, and they were given ad libitum access to water during the experiment. On the day of the experiment, animals in the intravenous group were administered the corresponding compound by single injection via the tail vein at an administration volume of 0.2 mL/animal. The sample collection time was 0.083 h, 0.167 h, 0.5 h, 1 h, 2 h, 4 h, 8 h, and 24 h. About 150 μL of whole blood was collected through the submaxillary venous plexus at each time point (30 μL of whole blood was diluted with ultrapure water at a ratio of 1:3, and 120 μL of whole blood was centrifuged to obtain plasma) and used for concentration determination by high-performance liquid chromatography-tandem mass spectrometry (LC-MS/MS). All animals were sacrificed after the PK samples were collected at the last time point. The plasma concentration was processed using a non-compartmental model of Phoenix WinNonlin™ version 8.3 (Certara) pharmacokinetic software, and the pharmacokinetic parameters were calculated using a linear-log trapezoidal method.

The mark [2] stands for this setting: whole blood, read-out: Whole blood AUClast.
Where [3] appears, read: whole blood, read-out: Whole blood Cmax.

SAE, sequence (Q9UBT2 whole entry): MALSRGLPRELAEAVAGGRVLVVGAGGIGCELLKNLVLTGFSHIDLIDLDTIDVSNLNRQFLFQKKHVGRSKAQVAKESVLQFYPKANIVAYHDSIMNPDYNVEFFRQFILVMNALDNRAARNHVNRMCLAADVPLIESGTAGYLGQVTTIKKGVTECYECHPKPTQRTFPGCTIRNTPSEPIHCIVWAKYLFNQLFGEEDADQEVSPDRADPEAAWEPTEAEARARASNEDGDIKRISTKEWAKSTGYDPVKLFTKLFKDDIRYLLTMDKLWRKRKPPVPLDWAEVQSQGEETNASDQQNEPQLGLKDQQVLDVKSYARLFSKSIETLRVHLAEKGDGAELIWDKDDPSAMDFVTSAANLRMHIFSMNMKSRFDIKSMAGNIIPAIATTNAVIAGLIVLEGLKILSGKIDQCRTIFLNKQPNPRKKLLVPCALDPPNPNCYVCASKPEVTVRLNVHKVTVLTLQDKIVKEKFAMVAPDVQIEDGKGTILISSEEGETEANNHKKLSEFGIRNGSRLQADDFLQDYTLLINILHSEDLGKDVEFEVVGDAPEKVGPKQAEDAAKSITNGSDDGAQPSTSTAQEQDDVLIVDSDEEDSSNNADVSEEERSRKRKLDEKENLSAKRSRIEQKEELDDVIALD
SAE, sequence (Q9UBE0 whole entry partner): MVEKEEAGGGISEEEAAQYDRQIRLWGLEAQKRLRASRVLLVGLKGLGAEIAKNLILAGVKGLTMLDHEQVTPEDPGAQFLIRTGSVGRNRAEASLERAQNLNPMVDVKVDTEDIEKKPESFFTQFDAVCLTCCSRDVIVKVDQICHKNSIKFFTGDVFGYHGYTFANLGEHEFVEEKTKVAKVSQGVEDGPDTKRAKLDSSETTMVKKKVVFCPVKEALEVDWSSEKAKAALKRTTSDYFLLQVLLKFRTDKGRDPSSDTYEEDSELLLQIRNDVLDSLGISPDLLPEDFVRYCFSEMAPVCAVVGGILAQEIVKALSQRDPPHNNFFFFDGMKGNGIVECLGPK

In the case of `NS(=O)(=O)OC[C@H]1C[C@@H](Nc2ncncc2C(=O)c2cc3c(s2)CCC[C@]32NCCc3ccc(F)cc32)C[C@@H]1O` [Compound 9], the IC50 on SAE worked out at 36 nM. Also, in data set [1], the “Whole blood AUClast/plasma AUClast ratio” value stood at 32.7, the “Whole blood Cmax/plasma Cmax ratio” value is on record as 23.9 and the “Plasma AUClast” value came out at 580 ng·h/mL. In data set [1] (plasma), the C0 is 730 ng/mL, the clearance came out at 56.9 mL/min/kg, the half-life was 1.31 h and the Vd came out at 3.91 L/kg. Moreover, the AUC(0-t) in data set [1] (plasma, read-out: AUClast) worked out at 580 ng·h/mL. For the same compound, in data set [1] (plasma, read-out: Cmax), the Cmax was determined as 597 ng/mL. Also, in data set [1] (setting [2]), the AUC(0-t) is 19000 ng·h/mL. For the same compound, the highest concentration (Cmax) in data set [1] (setting [3]) came to 14300 ng/mL.

Regarding `NS(=O)(=O)OC[C@H]1C[C@@H](Nc2ncncc2C(=O)c2cc3c(s2)COC[C@]32NCCc3ccc(Cl)cc32)C[C@@H]1O` [Compound 21], the IC50 on SAE came to 87.5 nM. Also, in data set [1], the “Whole blood AUClast/plasma AUClast ratio” value is 45.9, the “Whole blood Cmax/plasma Cmax ratio” value is 17.5 and the “Plasma AUClast” value was determined as 1479 ng·h/mL. In data set [1] (plasma), the C0 was 1610 ng/mL, the clearance amounted to 21.1 mL/min/kg, the half-life is 2.17 h and the Vd was 3.03 L/kg. For the same compound, the AUC(0-t) in data set [1] (plasma, read-out: AUClast) was determined as 1480 ng·h/mL. For the same compound, the Cmax in data set [1] (plasma, read-out: Cmax) is 1150 ng/mL. Besides, in data set [1] (setting [2]), the AUC(0-t) was found to be 67900 ng·h/mL. For the same compound, the highest concentration (Cmax) in data set [1] (setting [3]) amounted to 20200 ng/mL.

For the compound `NS(=O)(=O)OC[C@H]1C[C@@H](Nc2ncncc2C(=O)c2cc3c(s2)CC[C@]32NCCc3ccc(Cl)cc32)C[C@@H]1O` [Compound 48], at SAE, the half-maximal inhibitory concentration (IC50) came to 41 nM. In data set [1] (plasma), the C0 stood at 839 ng/mL, the clearance stood at 44 mL/min/kg, the half-life is 1.32 h and the Vd turned out to be 3.43 L/kg. The AUC(0-t) in data set [1] (plasma, read-out: AUClast) stood at 749 ng·h/mL. Besides, the Cmax in data set [1] (plasma, read-out: Cmax) stood at 719 ng/mL.
